Reference: ChEMBL document CHEMBL5729401, “Inhibitors of Rho associated coiled-coil containing protein kinase” (2022)

Target: Rho-associated protein kinase 2 (Homo sapiens, UniProt O75116)
Assay: Z-lyte assay: Compounds activities were measured by Z'-lyte kinase kit (ThermoFisher Scientific). The percent inhibition rate was calculated by normalizing the kinase activity value obtained with 1 μM compound treatment against DMSO control value. IC50s were calculated using the GraphPad Prism software with kinase activities data that were collected from 9 points serial dilution of compounds treatment.

Sequence of Rho-associated protein kinase 2 (O75116 whole entry): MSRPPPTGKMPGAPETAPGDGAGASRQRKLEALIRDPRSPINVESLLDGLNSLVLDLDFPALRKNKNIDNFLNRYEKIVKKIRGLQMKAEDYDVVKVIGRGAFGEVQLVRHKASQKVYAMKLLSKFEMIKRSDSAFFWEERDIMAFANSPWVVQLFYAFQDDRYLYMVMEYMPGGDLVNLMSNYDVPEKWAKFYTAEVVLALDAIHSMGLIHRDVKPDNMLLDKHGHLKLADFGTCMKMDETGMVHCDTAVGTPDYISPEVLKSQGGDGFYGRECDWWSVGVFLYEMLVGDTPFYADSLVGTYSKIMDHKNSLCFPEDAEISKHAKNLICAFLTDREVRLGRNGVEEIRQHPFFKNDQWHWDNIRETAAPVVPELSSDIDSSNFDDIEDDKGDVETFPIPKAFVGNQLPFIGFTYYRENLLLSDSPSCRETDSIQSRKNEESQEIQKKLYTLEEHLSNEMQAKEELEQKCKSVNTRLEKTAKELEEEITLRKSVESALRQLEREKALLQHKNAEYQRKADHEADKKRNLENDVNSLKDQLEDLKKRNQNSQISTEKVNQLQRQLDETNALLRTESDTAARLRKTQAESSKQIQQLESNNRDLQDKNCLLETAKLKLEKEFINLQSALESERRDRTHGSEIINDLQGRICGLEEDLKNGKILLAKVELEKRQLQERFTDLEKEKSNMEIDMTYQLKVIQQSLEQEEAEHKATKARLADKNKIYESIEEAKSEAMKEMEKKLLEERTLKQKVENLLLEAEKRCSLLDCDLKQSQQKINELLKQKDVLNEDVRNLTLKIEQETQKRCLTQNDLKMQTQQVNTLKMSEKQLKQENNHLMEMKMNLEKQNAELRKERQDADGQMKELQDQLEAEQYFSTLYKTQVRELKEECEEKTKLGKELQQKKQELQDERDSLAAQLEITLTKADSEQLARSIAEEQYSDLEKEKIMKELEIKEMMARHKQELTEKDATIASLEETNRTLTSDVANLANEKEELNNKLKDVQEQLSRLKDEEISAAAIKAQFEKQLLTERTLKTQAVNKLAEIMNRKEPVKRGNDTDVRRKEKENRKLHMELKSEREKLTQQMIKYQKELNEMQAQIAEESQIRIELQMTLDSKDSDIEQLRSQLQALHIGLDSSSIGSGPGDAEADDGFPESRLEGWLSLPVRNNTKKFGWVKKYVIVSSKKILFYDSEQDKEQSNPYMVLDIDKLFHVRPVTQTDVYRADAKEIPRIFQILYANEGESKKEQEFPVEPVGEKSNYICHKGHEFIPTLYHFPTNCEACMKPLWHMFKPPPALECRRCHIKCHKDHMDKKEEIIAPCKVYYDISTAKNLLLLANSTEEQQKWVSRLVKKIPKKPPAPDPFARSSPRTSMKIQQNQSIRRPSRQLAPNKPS

IC50: 0.021 µM
SMILES: CNC(C(=O)Nc1ccc(-c2cn[nH]c2)cc1)c1ccc(OC)c(F)c1 (stereo unspecified)
